From ChEMBL document CHEMBL3232865, “Development and characterization of 3-(benzylsulfonamido)benzamides as potent and selective SIRT2 inhibitors” (Eur J Med Chem, 2014)

What was measured:
in vitro [1] = conditions: human, microsomes
in vitro [2] = conditions: human, microsomes; remark: listed apart in the source
in vitro [3] = conditions: mouse, microsomes
in vitro [4] = conditions: mouse, microsomes; remark: listed apart in the source
[5] = human, microsomes, 1 µM
[6] = mouse, microsomes, 1 µM
[7] = mouse, microsomes, 1 µM; remark: listed apart in the source
[8] = human, microsomes, 1 h, 1 µM
in vitro [9] = conditions: human, microsomes; remark: listed apart in the source
in vitro [10] = conditions: human, microsomes; remark: listed apart in the source
in vitro [11] = conditions: human, microsomes; remark: listed apart in the source
in vitro [12] = conditions: mouse, microsomes; remark: listed apart in the source
in vitro [13] = conditions: mouse, microsomes; remark: listed apart in the source
in vitro [14] = conditions: mouse, microsomes; remark: listed apart in the source
[15] = Half life in mouse plasma at 5 uM; format: ADME, cell-free
[16] = Metabolic stability in mouse plasma assessed as compound remaining at 5 uM; format: ADME, cell-free; conditions: read-out: Stability

| SMILES | remaining at 1 µM (in vitro [1]) | remaining at 1 µM (in vitro [2]) | remaining at 1 µM (in vitro [3]) | remaining at 1 µM (in vitro [4]) | further results |
| --- | --- | --- | --- | --- | --- |
| CN(c1ccc(Cl)cc1)S(=O)(=O)c1cccc(C(=O)Nc2ccc(S(C)(=O)=O)cc2)c1 | 2% | 112% | 4% | 100% | – |
| CN(c1ccc(S(C)(=O)=O)cc1)S(=O)(=O)c1cccc(NC(=O)c2ccc(Br)cc2)c1 | – | – | – | – | t1/2 [5]: 75.7 min; CL [6]: 136 µL/min/mg; t1/2 [7]: 1.7 min; Stability [8]: 0.9%; microsomal CLint at 1 µM (in vitro [9]): 512 µL/min/mg; half-life at 1 µM (in vitro [10]): 4.5 min; microsomal CLint at 1 µM (in vitro [11]): 31 µL/min/mg; microsomal CLint at 1 µM (in vitro [12]): 945 µL/min/mg; half-life at 1 µM (in vitro [13]): 2.45 min; remaining at 1 h, 1 µM (in vitro [14]): 1.5% |
| CC(=O)c1ccc(N(C)S(=O)(=O)c2cccc(C(=O)Nc3ccc(Cl)cc3)c2)cc1 | 12% | – | 0% | 108% | – |
| COc1ccc(N(C)S(=O)(=O)c2cccc(C(=O)Nc3ccc(C#N)cc3)c2)cc1 | 2% | 106% | 2% | 90% | – |
| CN(c1ccc(Cl)cc1)S(=O)(=O)c1cccc(C(=O)Nc2ccc(C#N)cn2)c1 | 2% | 91% | 1% | 96% | – |
| CC(C)[N+](C)(CCOC(=O)C1c2ccccc2Oc2ccccc21)C(C)C [PROPANTHELINE] | – | – | – | – | half-life at 5 µM [15]: 18 min; remaining at 5 µM [16]: 3.4% |
| CN(c1ccc(F)cc1)S(=O)(=O)c1cccc(C(=O)Nc2ccc(C#N)cc2)c1 | 16% | – | – | – | – |
| CC(=O)c1ccc(N(C)S(=O)(=O)c2cccc(C(=O)Nc3ccc(Cl)cn3)c2)cc1 | 12% | 82% | 0% | 91% | – |
